Data on 2 compounds can be found in article PMC9549809, “In vivo behavior of [^64Cu]NOTA-terpyridine platinum, a novel chemo-radio-theranostic agent for imaging, and therapy of colorectal cancer” (Frontiers in Medicine, 2022).

Where two headings read alike, the source gives them in different places.

In one data set the test system is HCT116 cells. Also noted: method as in PMID 34578470. The following applies: cited from earlier work.
In a further data set the test system is tumor. Also noted: method as in PMID 24337603. The following applies: cited from earlier work.
Data set [1] has as its system HCT116 tumor. In words: Oxaliplatin in the same HCT116 mouse model (previous study). It is filed as in vivo, nude mice.
Data set [2] has as its system HCT116 tumor. The following applies: cited from earlier work.
The subject of another data set is plasma protein. To be noted: 24 h; cited from earlier work.

`CC(=O)[O-].CC(=O)[O-].[64Cu+2]` [^64Cu(OAc)2]: in the data set with HCT116 cells, the “nuclear accumulation relative to ^64Cu-NOTA-C3-TP” value is on record as “significantly lower”. Moreover, the tumor uptake with tumor (15 min post-injection) was 1.28 ± 0.13 %ID/g; with tumor (2 h post-injection), 2.76 ± 0.63 %ID/g; in the data set on tumor (16 h), 1.28 ± 0.07 %ID/g.

As to `O=C1[O][Pt]2([NH][C@@H]3CCCC[C@H]3[NH]2)[O]C1=O` [oxaliplatin], the “times more platinum drug in the tumor than with [^64Cu]NOTA-C3-TP” value in the data set with HCT116 tumor [1] (48 h) is recorded as 333 times. Moreover, the “plasma concentration, times higher than [^64Cu]NOTA-C3-TP” value in the data set with HCT116 tumor [1] (48 h post-injection, injected dose 1,250 times higher) was “about 6 times”. Besides, the “quantity measured in the tumor” value with HCT116 tumor [2] (10 mg/kg (25 nmol/g mouse), 48 h post-injection) was 0.3 nmol/g. Moreover, the “quantity in tumor as % of the injected dose” value in the data set with HCT116 tumor [2] (10 mg/kg, 48 h post-injection) was 1.2%. Besides, in the data set with HCT116 tumor [2] (48 h post-injection), the “concentration in the tumor” value is reported as 0.12 μg/g of tumor. Further, the “EF, oxaliplatin plus 15 Gy external beam vs oxaliplatin alone (TGD)” value in the data set on HCT116 tumor [2] (same mouse model, irradiated 48 h post-injection) was 5.18. Also, the “bound to plasma protein” value in the data set on plasma protein was 98%.
